Source: patent publication US20210221812A1, “MATRINE a-KETOAMINE COMPOUNDS, PREPARATION METHOD THEREFOR AND USE THEREOF” (SHANGHAI XINGYE PHARMACEUTICAL TECHNOLOGY CO., LTD, priority 2018, published 2021)
pIC50: −log10 of the molar value.

Legend:
Lovo cells [1] = test: Anti-tumor activity of NK cells activated by compounds, Lovo (CFSE/PI flow cytometry); format: cell-based; conditions: Homo sapiens, tumor cells treated with 20 μM compound 48 h, then mixed with NK cells 5:1 for 4 hours, CFSE+PI+ tumor cells, read-out: Lovo inhibition rate (%)
Experimental: (§1) Logarithmic growth phase of Lovo, HpeG-2, A549, k562, Panc-1 cells were collected and seeded in a 6-well plate at a density of 5×10^5/mL and 2 mL/well separately. The experimental group was treated with 20 μM final drug concentration of GJDx compounds, and the control group was treated with an equal volume of RPMI1640 medium. The groups were cultured at 37° C., saturated humidity, 5% CO2 for 48 h. After that, the cells of each group were collected, centrifuged and the supernatant was removed and resuspended in PBS at a density of 1×10^6/mL. Then 2 μL of CFSE stock solution (final concentration was 10 μM) was added into the cell suspension per 1 mL and cultured at 37° C. with 5% CO2 for 30 min, and then added 5-10 times of the volume of 4° C. pre-chilled RPM 1640 complete medium, and incubated on ice for 5 minutes, discarded the supernatant by centrifugation at 4° C., and wash the cells with fresh medium for 3 times. After that, mixing the labeled tumor cells and NK cells (the NK cell culture medium was α-MEM contained 1.5 g/L sodium bicarbonate, 12.5% fetal bovine serum, and 12.5% horse serum) according to the ratio of 5:1, the mixture cells was collected and washed with flow buffer twice after incubated for 4 hours, then 50 μg/mL PI was added, and incubated at room temperature for 15 minutes in the dark, and finally testing the percentage of CFSE^+PI^+ tumor cells on the flow cytometer.

MGC-803 cells = test: MTT tumor cell growth inhibition, MGC-803; format: cell-based; conditions: Homo sapiens, 48 h, read-out: Tumors growth-inhibitory activity (IC50) MGC-803
Experimental: (§2) Using MTT method to determine the growth inhibition activity of the matrine compounds on Lovo, MGC-803, Mia-paca2, HpeG-2, A549, k562, and Panc-1 cells in vitro. Logarithmic growth phase of Lovo, MGC-803, Mia-paca2, HpeG-2, A549, k562, Panc-1 cells were inoculated into 96-well plates (purchased from Institute of Biochemical Cells, Chinese Academy of Sciences, and cultured according to conventional tumor cell culture methods) at a density of 4×10^4/mL and 180 μL/well; after the cells adhered to the wall, 20 μL of drug solution was added to each well and matined the final drug concentrations were 0.1 μM, 1 μM, 10 μM, 50 μM, 100 μM respectively. After 48 h, 5 mg/mL MTT solution was added (20 μL/well) and maintained in a CO2 incubator for 3-4 h. After that, discarding the supernatant carefully, and DMSO was added (200 μL/well) when the residual liquid was air-dried, and shook for 0.5-1 h until the residual crystals was dissolved. The absorbance OD was measured at 492 nm by a microplate reader. GraphPad Prism 5 software was used to calculate the IC50 value.

A549 cells [2] = test: MTT tumor cell growth inhibition, A549; format: cell-based; conditions: Homo sapiens, 48 h, read-out: Tumors growth-inhibitory activity (IC50) A549
Experimental: as §2

k562 cells [3] = test: Anti-tumor activity of NK cells activated by compounds, k562 (CFSE/PI flow cytometry); format: cell-based; conditions: Homo sapiens, tumor cells treated with 20 μM compound 48 h, then mixed with NK cells 5:1 for 4 hours, CFSE+PI+ tumor cells, read-out: k562 inhibition rate (%)
Experimental: as §1

Lovo cells [4] = test: MTT tumor cell growth inhibition, Lovo; format: cell-based; conditions: Homo sapiens, 48 h, read-out: Tumors growth-inhibitory activity (IC50) Lovo
Experimental: as §2

HpeG-2 cells [5] = test: MTT tumor cell growth inhibition, HpeG-2; format: cell-based; conditions: 48 h, read-out: Tumors growth-inhibitory activity (IC50) HpeG-2
Experimental: as §2

Panc-1 cells [6] = test: Anti-tumor activity of NK cells activated by compounds, Panc-1 (CFSE/PI flow cytometry); format: cell-based; conditions: Homo sapiens, tumor cells treated with 20 μM compound 48 h, then mixed with NK cells 5:1 for 4 hours, CFSE+PI+ tumor cells, read-out: Panc-1 inhibition rate (%)
Experimental: as §1

HpeG-2 cells [7] = test: Anti-tumor activity of NK cells activated by compounds, HpeG-2 (CFSE/PI flow cytometry); format: cell-based; conditions: tumor cells treated with 20 μM compound 48 h, then mixed with NK cells 5:1 for 4 hours; CFSE+PI+ tumor cells; read-out: HpeG-2 inhibition rate (%)
Experimental: as §1

Mia-paca2 cells = test: MTT tumor cell growth inhibition, Mia-paca2; format: cell-based; conditions: Homo sapiens, MIA PaCa-2, 48 h, read-out: Tumors growth-inhibitory activity (IC50) Mia-paca2
Experimental: as §2

k562 cells [8] = test: MTT tumor cell growth inhibition, k562; format: cell-based; conditions: Homo sapiens, 48 h, read-out: Tumors growth-inhibitory activity (IC50) k562
Experimental: as §2

A549 cells [9] = test: Anti-tumor activity of NK cells activated by compounds, A549 (CFSE/PI flow cytometry); format: cell-based; conditions: Homo sapiens, tumor cells treated with 20 μM compound 48 h, then mixed with NK cells 5:1 for 4 hours, CFSE+PI+ tumor cells, read-out: A549 inhibition rate (%)
Experimental: as §1

Panc-1 cells [10] = test: MTT tumor cell growth inhibition, Panc-1; format: cell-based; conditions: Homo sapiens, 48 h, read-out: Tumors growth-inhibitory activity (IC50) Panc-1
Experimental: as §2

TNF-α = TNF-α activity inhibiting assay (LPS-stimulated peripheral blood, ELISA); format: cell-based, human; conditions: Homo sapiens, compound 20 μM, LPS 10 ng/mL, 6 hours, diluted peripheral blood of healthy volunteers, read-out: TNF-α inhibition rate (%)
Experimental: Methods: Peripheral blood from healthy volunteers was collected with EDTA anticoagulant tubes. After being diluted 5-fold with 1640 medium (Gibco, USA), the blood was added to 96-well cell culture plates (Costar, USA) and then treated with 10 μL solution of the compound of general formula (I) of the present invention in DMSO (Sigma, USA), the final concentration of the compound was 20 μM with the final concentration of DMSO was 0.2%. After incubation for 60 minutes in an incubator at 37° C. under 5% CO2, 10 μL LPS (Sigma, USA) was added to the reaction system, and the final concentration was 10 ng/mL. After further culturing for 6 hours in the incubator at 37° C. under 5% CO2, the supernatant was collected. The content of TNF-α was determined by ELISA (BD Biosciences, USA). Absorbance was detected at OD450 nm with a microplate reader, with OD 650 nm as reference. The control, a solution containing 0.2% DMSO medium, was as 0% inhibition. Raw data and standard curves were recorded. The four-parameter drug inhibition curve was plotted by XL-fit software and the inhibition rate of each compound was calculated.

| pIC50 (MGC-803 cells) | pIC50 (A549 cells [2]) | pIC50 (Lovo cells [4]) | pIC50 (HpeG-2 cells [5]) | pIC50 (Mia-paca2 cells) | pIC50 (k562 cells [8]) | pIC50 (Panc-1 cells [10]) | SMILES | inhibition at 20 µM (Lovo cells [1]) [%] | inhibition at 20 µM (k562 cells [3]) [%] | inhibition at 20 µM (Panc-1 cells [6]) [%] | inhibition at 20 µM (HpeG-2 cells [7]) [%] | inhibition at 20 µM (A549 cells [9]) [%] | inhibition at 20 µM (TNF-α) [%] |
| --- | --- | --- | --- | --- | --- | --- | --- | --- | --- | --- | --- | --- | --- |
| < 4.00 | 4.00 to 4.30 | 4.00 to 4.30 | 4.00 to 4.30 | < 4.00 | 4.00 to 4.30 | < 4.00 | O=C1c2ccccc2C(=O)N1C1CC[C@@H]2[C@H]3CCCN4CCC[C@@H](CN2C1=O)[C@@H]34 (some centres unmarked) [GJD 01] | ≥ 50 | < 50 | < 50 | > 50 | > 50 | ≥ 50 |
| 4.00 to 4.30 | 4.00 to 4.30 | > 4.30 | > 4.30 | 4.00 to 4.30 | > 4.30 | > 4.30 | Nc1cccc2c1C(=O)N(C1CC[C@@H]3[C@H]4CCCN5CCC[C@@H](CN3C1=O)[C@@H]45)C2=O (some centres unmarked) [GJD 02] | > 50 | > 50 | > 50 | > 50 | > 50 | > 50 |
| 4.00 to 4.30 | < 4.00 | > 4.30 | 4.00 to 4.30 | 4.00 to 4.30 | 4.00 to 4.30 | 4.00 to 4.30 | O=C1c2cccc(C(F)(F)F)c2C(=O)N1C1CC[C@@H]2[C@H]3CCCN4CCC[C@@H](CN2C1=O)[C@@H]34 (some centres unmarked) [GJD 07] | > 50 | > 50 | > 50 | > 50 | < 50 | > 50 |
|  |  |  |  |  |  |  | O=C1c2cccnc2C(=O)N1C1CC[C@@H]2[C@H]3CCCN4CCC[C@@H](CN2C1=O)[C@@H]34 (some centres unmarked) [GJD 15] | > 50 | < 50 | > 50 | > 50 | > 50 |  |
|  |  |  |  |  |  |  | O=C1[C@H](N2C(=O)c3ccccc3C2=O)CC[C@@H]2[C@H]3CCCN4CCC[C@@H](CN12)[C@@H]34 [GJD 26] | > 50 | > 50 | > 50 | > 50 | > 50 |  |
|  |  |  |  |  |  |  | O=C1c2cccc([N+](=O)[O-])c2CN1C1CC[C@@H]2[C@H]3CCCN4CCC[C@@H](CN2C1=O)[C@@H]34 (some centres unmarked) [GJD 31] | > 50 | > 50 | ≥ 50 | > 50 | > 50 |  |
|  |  |  |  |  |  |  | O=C1c2ccccc2CN1C1CC[C@@H]2[C@H]3CCCN4CCC[C@H](CN2C1=O)[C@@H]34 (some centres unmarked) [GJD 42] | > 50 | < 50 | < 50 | > 50 | > 50 |  |
|  |  |  |  |  |  |  | CC(=O)Oc1ccccc1C(=O)NC1CC[C@@H]2[C@H]3CCCN4CCC[C@@H](CN2C1=O)[C@@H]34 (some centres unmarked) [GJD 51] | < 50 | < 50 | < 50 | > 50 | < 50 |  |
| < 4.00 | > 4.30 | 4.00 to 4.30 | > 4.30 | 4.00 to 4.30 | 4.00 to 4.30 | 4.00 to 4.30 | O=C(NC1CC[C@@H]2[C@H]3CCCN4CCC[C@@H](CN2C1=O)[C@@H]34)c1cc(Cl)ccc1O (some centres unmarked) [GJD 55] | < 50 | < 50 | > 50 | < 50 | < 50 |  |
|  |  |  |  |  |  |  | Nc1cccc2c1C(=O)N(C1CC[C@@H]3[C@H]4CCC[N+]5([O-])CCC[C@@H](CN3C1=O)[C@@H]45)C2=O (some centres unmarked) [GJD 63] | > 50 | > 50 | > 50 | > 50 | > 50 |  |

| SMILES | pIC50 (MGC-803 cells) | pIC50 (A549 cells [2]) | pIC50 (Lovo cells [4]) | pIC50 (HpeG-2 cells [5]) | pIC50 (Mia-paca2 cells) | pIC50 (k562 cells [8]) | pIC50 (Panc-1 cells [10]) | inhibition at 20 µM (Lovo cells [1]) [%] | inhibition at 20 µM (k562 cells [3]) [%] | inhibition at 20 µM (Panc-1 cells [6]) [%] | inhibition at 20 µM (HpeG-2 cells [7]) [%] | inhibition at 20 µM (A549 cells [9]) [%] | inhibition at 20 µM (TNF-α) [%] |
| --- | --- | --- | --- | --- | --- | --- | --- | --- | --- | --- | --- | --- | --- |
| O=C1CCC[C@@H]2[C@H]3CCCN4CCC[C@@H](CN12)[C@@H]34 [Matrine, matrine] | < 4.00 | < 4.00 | 4.00 to 4.30 | 4.00 to 4.30 | < 4.00 | < 4.00 | < 4.00 |  |  |  |  |  | < 50 |
